Source: patent publication US20230413857A1, “COMPOSITIONS OF MICROORGANISMS AND METHODS OF USING SAME” (The State of Israel, Ministry of Agriculture & Rural …, priority 2020, published 2023)

Legend:
Pythium aphanidermatum = assay: Paper disk in-vitro bioactivity assay on PDA plates; type: cell-based; conditions: PDA plate
Achlya bisexualis = assay: as above; type: cell-based; conditions: PDA plate
Phytophthora infestans = type: cell-based; conditions: 200 μg on a paper disk, PDA plate
Photobacterium damselae = type: cell-based; conditions: 200 μg
Streptococcus iniae = type: cell-based; conditions: 200 μg
Aeromonas salmonicida = type: cell-based; conditions: 200 μg
S. parasitica mycelia = assay: Compound bioassays of 8-Nonenoic acid in liquid and solid media; type: cell-based, Saprolegnia parasitica; conditions: for Concentration giving full inhibition of S. parasitica growth: 19° C., 3 days
Method: The inhibition activity of the compound 8-Nonenoic acid was examined in both liquid and solid media. For liquid assay, a plug of PDA harboring the S. parasitica mycelia was introduced to 1 ml of sterile double distilled water (DDW) with 10 μl of potato dextrose broth (PDB) and varying concentrations of 8-Nonenoic acid (0, 0.1, 0.5, 1, 2.5, 5, 7.5, 10, 20 μg/ml) in 48 well plate and incubated at 19° C. for 3 days. For solid assay, a plug of PDA harboring the S. parasitica mycelia was introduced to 50 mm PDA petri plates with varying concentrations of 8-Nonenoic acid (as described above) and incubated at 19° C. for 3 days. For both liquid and solid, mycelium growth radios was measured and S. parasitica plugs viability were evaluated by transferring them to fresh PDB/PDA and observing the growth developed within 3 days. All experiments were performed in triplicates.

Saprolegnia parasitica = assay: 8-Nonenoic acid vs. Saprolegnia parasitica in Tilapia eggs bioassay test; type: in vivo, Tilapia (Oreochromis mossambicus) eggs; conditions: S. parasitica plugs and 10 μg/ml, one week, 26° C.
Method: Tilapia (Oreochromis mossambicus) eggs, 3 days post fertilization, were collected from the hatchery at the department of fisheries in ARO the Volcani Center and brought to the lab. Eggs were rinsed with aquarium water. Eggs were introduced to 100 ml flasks (25 ml water in each flask), 6 eggs for each flask. Eggs were introduced with Saprolegnia parasitica plugs in the flask or with Saprolegnia parasitica plugs and 10 μg/ml 8-Nonenoic acid. Control eggs were not treated and/or supplemented. Flasks were incubated on a shaker under controlled conditions: 26° C., 95 rpm, and day light for a week.

Row | Compound | Inhibition of the oomycete mycelium (Pythium aphanidermatum; 200 μg on a paper disk) | Inhibition of the oomycete mycelium (Achlya bisexualis; 200 μg on a paper disk) | Inhibition of the oomycete mycelium (Phytophthora infestans) | Inhibitory activity (Photobacterium damselae) | Inhibitory activity (Streptococcus iniae) | Inhibitory activity (Aeromonas salmonicida) | Inhibition of S. parasitica growth (S. parasitica mycelia; 0.1 g/ml in both water and agar) | Inhibition of S. parasitica growth (S. parasitica mycelia; 0.5-2.5 μg/ml, agar phase) | Concentration at which the growth radius decreased (S. parasitica mycelia; in agar) [µg/mL] | Concentration giving full inhibition of S. parasitica growth (S. parasitica mycelia; in agar (solid assay)) [µg/mL] | Concentration giving full inhibition of S. parasitica growth (S. parasitica mycelia; in water (liquid assay)) [µg/mL] | Ability to inhibit S. parasitica growth (screen of compounds identified from ABp5) (S. parasitica mycelia; purchased GC/MS-identified compounds, FIG. 13A) | Viability of fully inhibited S. parasitica plugs (S. parasitica mycelia; transferred to a new plate) | Survival of Tilapia eggs (Saprolegnia parasitica) | Inhibition of the oomycote mycelium (Pythium aphanidermatum; 100 μg on a paper disk) | Inhibition of the oomycote mycelium (Achlya bisexualis; 100 μg on a paper disk)
1 | CC(C)(c1ccccc1)c1ccc(O)cc1 [4-Cumylphenol] | showed inhibition | showed inhibition | showed inhibition | showed inhibitory activity | showed inhibitory activity | showed inhibitory activity |  |  |  |  |  |  |  |  |  | 
2 | C=CCCCCCCC(=O)O [8-Nonenoic acid] |  |  |  |  |  |  | No inhibition | no inhibition | ≥ 5 | 20 | 2.5 | strong ability to inhibit | complete loss of viability | did survive | showed inhibition | showed inhibition
